Source: the CheMixHub viscosity set
Values joined by “and” are separate entries in the source; they are usually repeats but may differ in a detail not shown here. Equal values may be shown once. ± gives the uncertainty stated by the source.

Columns and labels:
[1] = xn = mol fraction of the nth substance listed; conditions: 101 kPa

CCCCCC(=O)[O-].[NH3+]CCO
101 kPa
Conditions | viscosity [mPa·s]
293.15 K | 2571 ± 280
298.15 K | 1765 ± 200
303.15 K | 1239 ± 130
308.15 K | 892.2 ± 89
313.15 K | 645.8 ± 62
318.15 K | 477.6 ± 43
323.15 K | 358.5 ± 31

c1ccc(Oc2ccccc2)cc1
101 kPa
Conditions | viscosity
303.15 K | 3.3 ± 0.14 mPa·s and 3.051 ± 0.065 mPa·s
308.15 K | 2.92 ± 0.12 mPa·s
313.15 K | 2.61 ± 0.11 mPa·s

Cc1ccc(Cl)cc1
viscosity
Conditions | 298.15 K | 303.15 K | 308.15 K | 313.15 K | 318.15 K
100 kPa | 0.83 ± 0.018 mPa·s | 0.782 ± 0.05 mPa·s | 0.724 ± 0.05 mPa·s and 0.737 ± 0.016 mPa·s | 0.682 ± 0.05 mPa·s | 0.632 ± 0.05 mPa·s and 0.662 ± 0.014 mPa·s
101 kPa | – | 0.782 ± 0.013 mPa·s and 0.782 ± 0.021 mPa·s | 0.728 ± 0.02 mPa·s | 0.684 ± 0.012 mPa·s and 0.682 ± 0.019 mPa·s | 0.632 ± 0.018 mPa·s

Cc1ccccc1C + CCCCCCO
viscosity, [1]
Conditions | 303.15 K | 313.15 K | 318.15 K | 323.15 K
x2 = 0.0999 | 0.758 ± 0.008 mPa·s | 0.663 ± 0.007 mPa·s | – | 0.584 ± 0.006 mPa·s
x2 = 0.1 | 0.7581 ± 0.0099 mPa·s | 0.6626 ± 0.0087 mPa·s | – | 0.5835 ± 0.0077 mPa·s
x2 = 0.1999 | 0.852 ± 0.009 mPa·s | 0.731 ± 0.007 mPa·s | – | 0.637 ± 0.007 mPa·s
x2 = 0.2 | 0.852 ± 0.011 mPa·s | 0.7312 ± 0.0095 mPa·s | 0.6825 ± 0.0089 mPa·s | 0.6374 ± 0.0084 mPa·s
x2 = 0.2999 | 0.978 ± 0.01 mPa·s | 0.829 ± 0.008 mPa·s | – | 0.713 ± 0.007 mPa·s
x2 = 0.3 | 0.9776 ± 0.013 mPa·s | 0.8292 ± 0.011 mPa·s | – | 0.7127 ± 0.0093 mPa·s
x2 = 0.4 | 1.142 ± 0.015 mPa·s | 0.9571 ± 0.012 mPa·s | – | 0.8098 ± 0.01 mPa·s
x2 = 0.4001 | 1.142 ± 0.012 mPa·s | 0.957 ± 0.01 mPa·s | – | 0.81 ± 0.008 mPa·s
x2 = 0.4997 | 1.361 ± 0.014 mPa·s | 1.118 ± 0.011 mPa·s | – | 0.933 ± 0.009 mPa·s
x2 = 0.5 | 1.361 ± 0.017 mPa·s | 1.118 ± 0.014 mPa·s | – | 0.933 ± 0.012 mPa·s
x2 = 0.6 | 1.651 ± 0.017 mPa·s and 1.651 ± 0.021 mPa·s | 1.325 ± 0.013 mPa·s and 1.325 ± 0.017 mPa·s | – | 1.087 ± 0.011 mPa·s and 1.087 ± 0.014 mPa·s
x2 = 0.7 | 2.034 ± 0.021 mPa·s and 2.034 ± 0.025 mPa·s | 1.596 ± 0.016 mPa·s and 1.596 ± 0.02 mPa·s | – | 1.284 ± 0.013 mPa·s and 1.284 ± 0.016 mPa·s
x2 = 0.8 | 2.532 ± 0.026 mPa·s and 2.532 ± 0.032 mPa·s | 1.951 ± 0.02 mPa·s and 1.951 ± 0.024 mPa·s | – | 1.541 ± 0.016 mPa·s and 1.541 ± 0.019 mPa·s
x2 = 0.8999 | 3.141 ± 0.032 mPa·s | 2.391 ± 0.025 mPa·s | – | 1.859 ± 0.019 mPa·s
x2 = 0.9 | 3.141 ± 0.039 mPa·s | 2.391 ± 0.03 mPa·s | – | 1.859 ± 0.023 mPa·s
